# Results from patent US9789117B2, “Use of sigma ligands in diabetes type-2 associated pain” (LABORATORIOS DEL DR. ESTEVE, S.A., priority 2011, dated 2017).
# “Also recorded” adds a separate entry of the source. Structures can show the parent of a compound that is named as a salt.
# Tests used:
# Format in all cases: in vivo, rat
# [1] = test system: male ZDF (Zucker Diabetic Fatty) rats; assay: Plantar test (thermal hyperalgesia, withdrawal latency); conditions: for effect on thermal hyperalgesia (plantar test), acute treatment: single 64 mg/kg i.p., compared with week 7 baseline, 64 mg/kg
# Procedure: (§1) The example 1 was dissolved in physiological saline (0.9%) and pH was corrected to 5 with NaOH. The compound was administered by the intraperitoneal (i.p.) route. The doses of drug employed in the present study were 64 mg/kg i.p. for acute administration and 25 mg/kg i.p. twice a day (BID) for the chronic treatment during 14 days. The compound and the saline (vehicle) adjusted at pH 5, were administered in a volume of 0.5 ml.
# (§2) All experimental protocols were performed in strict accordance with the EC regulation for care and use of experimental animals (86/609/EEC). Studies were performed with male ZDF (Zucker Diabetic Fatty) rats (ZDF/Gmi, fa/fa) obtained from Charles Rivers Genetic Models Inc. 6 week old rats were housed in groups of two in standard transparent cages, under a 12 light-dark cycle, and animals were maintained on Purina 5008 (16.7 kcal % fat) diet and sterile tap water, available ad libitum. Nonfasting blood glucose levels and body weight were regularly monitored.
# (§3) Acute example 1: animals received one injection (0.5 ml) of example 1 (64 mg/kg i.p.) 30 minutes before behavioral testing (n=8).
# (§4) Chronic example 1: animals received one injection (0.5 ml) of example 1 (25 mg/kg BID, for 14 days) (n=8). Behavioral tests were performed once a week during the treatment, and one week after the last administration they were sacrificed and electrophysiological and cardiovascular experiments were carried out.
# Thermal (heat) hyperalgesia (heat-nociception) was tested using a 37370 plantar test apparatus (Ugo Basile, Comerio VA, Italy). The withdrawal latency from a focused beam of radiant heat applied to the mid plantar surface of the hindpaws was recorded. The intensity of light was adjusted at the start of the experiment such that the control average baseline latencies were about 8 s and a cut-off latency of 30 s was imposed. The withdrawal latency of each paw was measured and the mean value was used for data analysis. The antihyperalgesic effect of the treatment was evidenced as an increase in the withdrawal latency respect to control baseline latencies.
# Plantar test results are expressed as the percentage of the mean of thermal latency obtained from both hindpaws.
# Data are expresses as mean+standard error mean (SEM). Statistical analysis of drug effects for significant differences between multiple groups were performed by analysis of variance (ANOVA), followed, when appropriate, by post-hoc Newman-Keuls test or Bonferroni Test. P<0.05 was considered as statistically significant.
# [2] = test system: male ZDF (Zucker Diabetic Fatty) rats; assay: Von Frey test (mechanical allodynia, pressure threshold)
# Procedure: as §1, §2, §3, §4
# Mechanical allodynia was assessed using an electronic Von Frey apparatus (EVF3, Bioseb, BP89, Chaville Cedez, France). Rats were placed individually on an elevated iron mesh floor, covered by a transparent plastic cage and were allowed to adapt to the testing environment for at least 15 minutes. The test was done by applying the von Frey filament through the mesh floor to the plantar surface of each hindpaw.
# The test was performed three times with approximately 3 min interval between trials. The mean of the three trials was used for data analysis. […]
# Von Frey test results are expressed as the percentage of the mean of mechanical threshold obtained from both hindpaws. […]
# [3] = test system: male ZDF (Zucker Diabetic Fatty) rats; assay: Spontaneous locomotor activity (photocell activity chambers)
# Procedure: as §1
# as §2, with “monitored. […]” for “monitored.”
# it was evaluated using individual photocell activity chambers (Cibertec, Spain). Rats were placed in the recording chambers (55×40 cm, spacing between beams 3 cm) […] after drug administration, and the number of interruptions of photocell beams was recorded over a 30-min period.
# Spontaneous locomotor activity is expressed as the percentage of the mean number of crossings of the photocell beams over 30 minutes. […]
# Aδ-fibres of ZDF rats = assay: Skin-nerve preparation and electrophysiological recordings (saphenous nerve Aδ-fibres, mechanical stimulation) after chronic treatment
# Procedure: as §4
# 3.2 Skin—Nerve Preparation and Electrophysiological Recordings
# In order to minimize pain or discomfort, animals were killed by cervical dislocation. The saphenous nerve and its innervating territory on the hairy hindpaw skin were subcutaneously dissected and excised. […] Neuronal activity was recorded using gold-wire electrodes. Small filaments of the nerve were repeatedly split with sharpened forceps until a single unit activity could be recorded from them. […] Spikes were later analyzed offline using the SPIDI software.
# Units were first identified by manual probing of the skin with a blunt glass rod that exerts a pressure of more than 500 mN to search for their receptive field (RF). […] In order to characterize the units, we assessed their conduction velocity (CV) by electrically stimulating the RF with supramaximal square-wave pulses (pulse width, 0.5 ms; train frequency, 0.2 Hz; variable intensity) with a Teflon-coated steel microneurography electrode (shaft diameter 1 mm, bare tip diameter 5-10 μm impedance 1-5 MΩ); an indifferent electrode was placed nearby in the organ bath. […]
# [4] = ZDF rats, 25 mg/kg i.p. BID for 14 days (week 13 to 15)
# [5] = chronic treatment 25 mg/kg for 14 days, twice a day
smiles,measurement,setting,value
"Cc1cc(OCCN2CCOCC2)nn1-c1ccc2ccccc2c1 [Example 1, 4-{2-[5-methyl-1-(naphthalen-2-yl)-1H-pyrazol-3-yloxy]ethyl}morpholine hydrochloride]",increase of the latency to hindpaw withdrawal in response to thermal stimulation (plantar test),"[1]; ZDF rats aged 13 weeks, acute 64 mg/kg i.p., 30 minutes before test, mean±SEM, vehicle 12.6±6.9%",25.5±9.1%
same,"effect on thermal hyperalgesia (plantar test), acute treatment","[1]; ZDF rats aged 13 weeks, hydrochloride",reversed thermal hyperalgesia
same,"effect on thermal hyperalgesia (plantar test), acute treatment","[1]; ZDF rats aged 13 weeks, listed as example 1, hydrochloride",restored baseline values; also recorded: reversed the changes in the thresholds
same,"effect on thermal hyperalgesia (plantar test), chronic treatment",[1]; [4],completely reversed
same,tolerance to the antihyperalgesic effect,[1]; [5],No tolerance
same,"effect on mechanical allodynia (Von Frey test), acute treatment","[2]; ZDF rats aged 13 weeks, single 64 mg/kg i.p., compared with week 7 baseline, listed as example 1, hydrochloride, 64 mg/kg",restored baseline values; also recorded: the mechanical allodynia was reversed; also recorded: reversed the changes in the thresholds
same,"effect on mechanical allodynia (Von Frey test), chronic treatment",[2]; [4],completely reversed
same,tolerance to the antiallodynic effect,[2]; [5],No tolerance
same,"spontaneous locomotor activity, chronic treatment","[3]; 25 mg/kg i.p. BID for 14 days, vs pretreatment values",no differences
same,"spontaneous locomotor activity, acute treatment",[3]; single 64 mg/kg i.p.,not significantly different
same,threshold of response to the mechanical stimulation (electrophysiological recording),"Aδ-fibres of ZDF rats; 25 mg/kg i.p. BID for 14 days, vs vehicle-treated ZDF rats",reduced the threshold
same,hyperreactivity in response to mechanical stimulation in electrophysiological recordings (Aδ-fibres),"Aδ-fibres of ZDF rats; chronic treatment, conclusion",reduction of the hyperreactivity
